Results taken from patent publication US9499535B2, “Kinase inhibitors” (ORIGENIS GMBH, priority 2011, dated 2016).

molecular target: T1, SYK kinase (Homo sapiens, UniProt P43405); test: SYK assay (OMNIA Kinase Assay, Invitrogen); format: biochemical; conditions: apparent Ki calculated from the IC50 using the Cheng-Prusoff equation; 1 mM ATP, 10 μM Peptide Substrate; read-out: SYK Activities: Ki
T1 construct: purchased Invitrogen, Carlsbad
Experimental: In the assay OMNIA® KINASE ASSAY by Invitrogen Corporation (Carlsbad) the effect of invention of a compound on the phosphorylation is determined by measurement of fluorescence intensity of a chelation-enhanced fluorophore called SOX. Upon phosphorylation of the peptide by the kinase of interest, Mg2+ is chelated to form a bridge between the SOX moiety and the phosphate group that is transferred to the specific tyrosine on the peptide. The fluorescence intensity is directly proportional to the amount of peptide phosphorylation.
To the wells of an 384 well small volume plate (Greiner, Frickenhausen) are added (i) the compound under test in 5% DMSO/distilled water (2 μl), (ii) 16 μl of the master mix containing ATP, DTT, Kinase Reaction Buffer, Omina Peptide Substrate Tyr 7 resulting in a final concentration of 1 mM ATP, 0.2 mM DTT and 10 μM Peptide Substrate.
The Master Mix and the assay plate was incubated to reaction temperature before the measurement (30° C.). The reaction was started with addition of (iii) 2 μl 4 μg/ml SYK kinase (Invitrogen, Carlsbad). During measurement fluorescence intensitiy readings were collected using a TECAN M1000 at a wavelength of λex 360/λem 485 nm every 30 s for 30 minutes. The reaction velocity was plotted versus the inhibitor concentration to determine the IC50 using XLFit 5.0 (IDBS, Guildford) to fit to a sigmoidal dose response curve, and the apparent Ki values were calculated from the IC50 using the Cheng-Prusoff equation (Cheng, Y.; Prusoff, W. H. Biochem. Pharmacol. 22, 3099-3108, 1973).

SMILES	Ki [nM]
COc1ccc2nc(Nc3ccc(Oc4ccccc4)cc3)c3n[nH]cc3c2c1 [Example #159, (8-Methoxy-2H-pyrazolo[3,4-c]quinolin-4-yl)-(4-phenoxy-phenyl)-amine]	10 to 100
COc1ccc2nc(Nc3ccc(N(C)C)c(C)c3)c3n[nH]cc3c2c1 [Example #178, N4-(8-Methoxy-2H-pyrazolo[3,4-c]quinolin-4-yl)-2,N1,N1-trimethyl-benzene-1,4-diamine]	10 to 100
COc1ccc2nc(Nc3ccc(Cc4ccccc4)cc3)c3n[nH]cc3c2c1 [Example #190, (4-Benzyl-phenyl)-(8-methoxy-2H-pyrazolo[3,4-c]quinolin-4-yl)-amine]	100 to 1000
COc1ccc2nc(Nc3ccc(N4CCOCC4)cc3C)c3n[nH]cc3c2c1 [Example #191, (8-Methoxy-2H-pyrazolo[3,4-c]quinolin-4-yl)-(2-methyl-4-morpholin-4-yl-phenyl)-amine]	100 to 1000
CN1CCN(c2ccc(Nc3nc4ccccc4c4c(C(F)(F)F)[nH]nc34)cc2)CC1 [Example #211, [4-(4-Methyl-piperazin-1-yl)-phenyl]-(1-trifluoromethyl-2H-pyrazolo[3,4-c]quinolin-4-yl)-amine]	100 to 1000
FC(F)(F)c1[nH]nc2c(Nc3ccc4cn[nH]c4c3)nc3ccccc3c12 [Example #212, (1H-Indazol-6-yl)-(1-trifluoromethyl-2H-pyrazolo[3,4-c]quinolin-4-yl)-amine]	100 to 1000
COc1ccc(Nc2nc3ccccc3c3c([N+](=O)[O-])[nH]nc23)cc1OC [Example #213, (3,4-Dimethoxy-phenyl)-(1-nitro-2H-pyrazolo[3,4-c]quinolin-4-yl)-amine]	100 to 1000
N#Cc1ccc2nc(Nc3ccc(N4CCOCC4)cc3)c3n[nH]cc3c2c1 [Example #217, 4-(4-Morpholin-4-yl-phenylamino)-2H-pyrazolo[3,4-c]quinoline-8-carbonitrile]	< 10
COc1ccc(Nc2nc3snc(C)c3c3c[nH]nc23)cc1OC [Example #218, (3,4-Dimethoxy-phenyl)-(1-methyl-7H-3-thia-2,4,6,7-tetraaza-as-indacen-5-yl)-amine]	100 to 1000
COc1ccc(Nc2nc3cc(C#N)ccc3c3c(C)[nH]nc23)cc1OC [Example #226, 4-(3,4-Dimethoxy-phenylamino)-1-methyl-2H-pyrazolo[3,4-c]quinoline-7-carbonitrile]	< 10
Cc1[nH]nc2c(Nc3ccc4cn[nH]c4c3)nc3cc(C#N)ccc3c12 [Example #227, 4-(1H-Indazol-6-ylamino)-1-methyl-2H-pyrazolo[3,4-c]quinoline-7-carbonitrile]	100 to 1000
COc1ccc2nc(Nc3ccc(C(=O)N4CCCC4)cc3)c3n[nH]cc3c2c1 [Example #231, [4-(8-Methoxy-2H-pyrazolo[3,4-c]quinolin-4-ylamino)-phenyl]-pyrrolidin-1-yl-methanone]	100 to 1000
COc1cccc2c1nc(Nc1ccc3c(c1)OCO3)c1n[nH]cc12 [Example #249, Benzo[1,3]dioxol-5-yl-(6-methoxy-2H-pyrazolo[3,4-c]quinolin-4-yl)-amine]	100 to 1000
CCN1CCN(c2ccc(Nc3nc4cc(OC)ccc4c4c[nH]nc34)cc2)CC1 [Example #260, [4-(4-Ethyl-piperazin-1-yl)-phenyl]-(7-methoxy-2H-pyrazolo[3,4-c]quinolin-4-yl)-amine]	10 to 100
COC(=O)c1scc2c1nc(Nc1ccc(OC)c(OC)c1)c1n[nH]cc12 [Example #275, 4-((3,4-dimethoxyphenyl)amino)-2H-pyrazolo[4,3-d]thieno[3,4-b]pyridine-6-carboxylic acid methyl ester]	100 to 1000
COc1ccc2nc(Nc3ccc(NC(=O)Nc4cccc(C)c4)cc3)c3n[nH]cc3c2c1 [Example #289, 1-(4-((8-methoxy-2H-pyrazolo[3,4-c]quinolin-4-yl)amino)phenyl)-3-(m-tolyl)urea]	10 to 100
COc1cc(OC)c2nc(Nc3ccc(NC(=O)Nc4cccc(C)c4)cc3)c3n[nH]cc3c2c1 [Example #297, 1-(4-((6,8-dimethoxy-2H-pyrazolo[3,4-c]quinolin-4-yl)amino)phenyl)-3-(m-tolyl)urea]	100 to 1000
COc1ccc2nc(Nc3cccc(S(F)(F)(F)(F)F)c3)c3n[nH]cc3c2c1 [Example #309, 8-methoxy-N-(3-(pentafluorosulfanyl)phenyl)-2H-pyrazolo[3,4-c]quinolin-4-amine]	100 to 1000
COc1ccc2nc(Nc3ccc(F)c(F)c3)c3n[nH]cc3c2c1 [Example #311, N-(3,4-difluorophenyl)-8-methoxy-2H-pyrazolo[3,4-c]quinolin-4-amine]	10 to 100

Results, then the compound that gave them:

Ki [nM]	SMILES
10 to 100	COc1ccc2c(c1)nc(Nc1ccc(N3CCN(C)CC3)cc1)c1n[nH]cc12 [Example #176, (7-Methoxy-2H-pyrazolo[3,4-c]quinolin-4-yl)-[4-(4-methyl-piperazin-1-yl)-phenyl]-amine]
10 to 100	COc1ccc2nc(Nc3ccc4c(c3)NC(=O)CN4)c3n[nH]cc3c2c1 [Example #182, 7-(8-Methoxy-2H-pyrazolo[3,4-c]quinolin-4-ylamino)-3,4-dihydro-1H-quinoxalin-2-one]
< 10	N#Cc1ccc2nc(Nc3ccc4cn[nH]c4c3)c3n[nH]cc3c2c1 [Example #197, 4-(1H-Indazol-6-ylamino)-2H-pyrazolo[3,4-c]quinoline-8-carbonitrile]
100 to 1000	COc1ccc(Nc2nc3ccccc3c3c(C(F)(F)F)[nH]nc23)cc1OC [Example #210, (3,4-Dimethoxy-phenyl)-(1-trifluoromethyl-2H-pyrazolo[3,4-c]quinolin-4-yl)-amine]
100 to 1000	CN1CCN(c2ccc(Nc3nc4ccccc4c4c([N+](=O)[O-])[nH]nc34)cc2)CC1 [Example #214, [4-(4-Methyl-piperazin-1-yl)-phenyl]-(1-nitro-2H-pyrazolo[3,4-c]quinolin-4-yl)-amine]
10 to 100	Cc1nsc2nc(Nc3ccc4cn[nH]c4c3)c3n[nH]cc3c12 [Example #219, (1H-Indazol-6-yl)-(1-methyl-7H-3-thia-2,4,6,7-tetraaza-as-indacen-5-yl)-amine]
100 to 1000	Cc1nsc2nc(Nc3ccc(N4CCN(C)CC4)cc3)c3n[nH]cc3c12 [Example #220, [4-(4-Methyl-piperazin-1-yl)-phenyl]-(1-methyl-7H-3-thia-2,4,6,7-tetraaza-as-indacen-5-yl)-amine]
10 to 100	COc1ccc2c(c1)nc(Nc1ccc3c(c1)OCCO3)c1n[nH]cc12 [Example #265, (2,3-Dihydro-benzo[1,4]dioxin-6-yl)-(7-methoxy-2H-pyrazolo[3,4-c]quinolin-4-yl)-amine]
10 to 100	COc1ccc2c(c1)nc(Nc1ccc3c(c1)OCO3)c1n[nH]cc12 [Example #267, Benzo[1,3]dioxol-5-yl-(7-methoxy-2H-pyrazolo[3,4-c]quinolin-4-yl)-amine]
100 to 1000	COc1ccc2nc(Nc3ccc(-c4ccc(C(=O)O)cc4)cc3)c3n[nH]cc3c2c1 [Example #288, 4′-((8-methoxy-2H-pyrazolo[3,4-c]quinolin-4-yl)amino)-[1,1′-biphenyl]-4-carboxylic acid]
100 to 1000	COc1cc2nc(Nc3ccc(NC(=O)Nc4cccc(C)c4)cc3)c3n[nH]cc3c2cc1OC [Example #299, 1-(4-((7,8-dimethoxy-2H-pyrazolo[3,4-c]quinolin-4-yl)amino)phenyl)-3-(m-tolyl)urea]
